Here are results for eight compounds from patent publication US10577383B2, “Macrocyclic inhibitors of myeloperoxidase” (BRISTOL-MYERS SQUIBB COMPANY, priority 2016, dated 2020).

One may read the pIC50 as −log10 of the IC50, conventionally taken in molar units. The term IC50 denotes the concentration at which inhibition is half-maximal. Read a high IC50 as weaker potency in that assay.

Molecules are shown by their SMILES. pIC50: −log10 of the molar value. Like-named read-outs stand apart in the source and are kept apart here.

The conditions of data set [1]: the molecule shown is the open-chain precursor.
The target of a further data set is EPX (Homo sapiens (Human), UniProt P11678). Briefly: EPX Bromination Assay. The class given is biochemical. The settings on record: EPX bromination activity, 100 mM KPi (pH 7.4), 3-bromo tyrosine formation. How it is done: (§1) [formula] where A=minimal Y value (activity level of inhibited sample), B=maximal Y value (activity level of uninhibited sample), C=Log IC50, D=Hill Slope, x=concentration of inhibitor. EPX Bromination Assay
Chain of EPX (P11678 251-715): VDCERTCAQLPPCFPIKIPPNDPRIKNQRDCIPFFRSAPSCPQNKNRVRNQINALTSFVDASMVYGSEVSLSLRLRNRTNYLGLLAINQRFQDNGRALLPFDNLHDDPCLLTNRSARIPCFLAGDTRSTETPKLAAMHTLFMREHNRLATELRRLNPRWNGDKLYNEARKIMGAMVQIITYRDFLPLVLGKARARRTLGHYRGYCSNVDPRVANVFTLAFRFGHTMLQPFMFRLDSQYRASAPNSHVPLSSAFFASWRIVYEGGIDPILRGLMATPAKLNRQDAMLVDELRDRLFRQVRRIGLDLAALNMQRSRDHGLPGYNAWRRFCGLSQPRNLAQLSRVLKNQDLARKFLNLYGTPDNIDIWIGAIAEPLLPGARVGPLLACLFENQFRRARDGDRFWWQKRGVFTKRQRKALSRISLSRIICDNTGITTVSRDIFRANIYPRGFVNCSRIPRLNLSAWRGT
Chain of EPX (P11678 140-250): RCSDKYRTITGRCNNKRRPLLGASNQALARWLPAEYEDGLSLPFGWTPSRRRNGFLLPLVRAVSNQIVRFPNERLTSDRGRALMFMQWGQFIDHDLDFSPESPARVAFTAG
EPX bromination activity was measured in 100 mM KPi (pH 7.4) by monitoring the H2O2 catalyzed formation of 3-bromo tyrosine from tyrosine and potassium bromide. A 50 μl mixture of 0.6 μM EPX (Lee Biosolutions Cat. #342-60) was added to 100 nL inhibitor in 100% DMSO in a 384 well REMP plate. Enzyme and compound were preincubated for ten minutes at room temperature.
After the ten minute preincubation of enzyme and inhibitor, 25 μL of a mixture containing 400 μM tyrosine and 1200 μM potassium bromide was added to the plate containing enzyme and inhibitor, followed by the addition of 25 μl of 20 μM H2O2. The reaction was allowed to proceed for 15 minutes, at which time it was quenched with 10 μL of 20% TCA. The final concentrations of all components were 0.3 μM EPX, 100 μM tyrosine, […], 5 μM H2O2, 0.1% DMSO, 2.0% TCA.
IC50 values were determined by determining the peak areas of 3-bromo-tyrosine present at the end of the 15 minute reaction and fitting the data to:
[formula] where A=minimal Y value (activity level of inhibited sample), B=maximal Y value (activity level of uninhibited sample), C=Log IC50, D=Hill Slope, x=concentration of inhibitor.
Reversed-phase analysis was performed on a Waters Acquity Ultra Performance LC system using an Acquity UPLC BEH C18 […], 2.1×50 mm analytical column. The column was maintained at 60° C. Samples were eluted using a gradient of 0%-100% B over 2.5 minutes, followed by equilibration with 100% A for 1 minute where A consisted of 0.1% TFA and B consisted of 90% MeOH/0.1% TFA at a flow rate of 0.6 mL/min. The retention time of 3-bromo tyrosine was 1.22 min

Data set [2] has as its target T1, myeloperoxidase (Homo sapiens (Human), UniProt P05164). Briefly: MPO Peroxidation Assay (Amplex Red Assay). The data set is classed as biochemical. The settings on record: MPO peroxidation activity, 100 mM KPi (pH 7.4), ten minute preincubation; potency ranges defined in nM. The protocol: MPO Peroxidation Assay (Amplex Red Assay)
MPO peroxidation activity was measured in 100 mM KPi (pH 7.4) by utilizing the non-fluorescent reagent Amplex Red (Invitrogen Cat. #A12222) which can be oxidized to the highly fluorescent resorufin. Amplex Red is oxidized by the peroxidase action of MPO to resorufin. Reactions were carried out in 50 μL total volume by adding a 25 μL mixture of 200 pM myeloperoxidase and 40 nM H2O2 (Sigma #349887) to 100 nL inhibitor in 100% DMSO in a 384 well Perkin Elmer Optiplate. Enzyme and compound were preincubated for ten minutes at room temperature.
After the ten minute preincubation, 25 μL of an Amplex Red mixture containing 200 μM Amplex Red and 10 mM H2O2 was added to the plate. Kinetic determinations were carried out immediately on a Perkin Elmer Envision (15 minute kinetic read, Ex: 535 nm, Em: 590 nm).
(§2) IC50 values were calculated by determining the slope of the linear portion of the kinetic trace (180-540 secs), and using that calculated slope to determine % inhibition occurring at each concentration of inhibitor using the following equation:
(§3) [formula] where A=minimal Y value (activity level of inhibited sample), B=maximal Y value (activity level of uninhibited sample), C=Log IC50, D=Hill Slope, x=concentration of inhibitor. MPO Chlorination Assay (APF Assay) MPO chlorination activity was measured in 100 mM KPi (pH 7.4) by utilizing the non-fluorescent reagent Aminophenyl fluorescein (APF, Invitrogen Cat. #A36003). APF is cleaved by (—OCl) to yield the fluorescent compound fluorescein. Reactions were carried out in 50 μL total volume by adding a 25 μL mixture of 200 pM myeloperoxidase and 120 mM NaCl to 100 nL inhibitor in 100% DMSO in a 384 well, non-binding surface clear bottom plate (Corning #3655). Enzyme, inhibitor, and chloride were preincubated for ten minutes at room temperature.

Data set [3] addresses T1, myeloperoxidase. Briefly: MPO Chlorination Assay (APF Assay). The data set is classed as biochemical. Particulars: MPO chlorination activity, 100 mM KPi (pH 7.4), 120 mM NaCl, ten minute preincubation; potency ranges defined in nM. The protocol:
as §3
After the ten minute preincubation, 25 μL of an APF mixture containing […], 120 mM NaCl and 10 μM H2O2 was added to the plate using the internal dispensing system of a Hammatsu FDSS 6000. Kinetic determinations were carried out immediately on the FDSS 6000 (3 minute kinetic read, 1 read every second, ex: 485 nm, em: 535 nm). IC50 values for inhibitors were calculated by taking the slope of the linear portion of the kinetic measurement (20 seconds to 80-120 secs).
as §2, §1

T1 sequence (P05164 49-745): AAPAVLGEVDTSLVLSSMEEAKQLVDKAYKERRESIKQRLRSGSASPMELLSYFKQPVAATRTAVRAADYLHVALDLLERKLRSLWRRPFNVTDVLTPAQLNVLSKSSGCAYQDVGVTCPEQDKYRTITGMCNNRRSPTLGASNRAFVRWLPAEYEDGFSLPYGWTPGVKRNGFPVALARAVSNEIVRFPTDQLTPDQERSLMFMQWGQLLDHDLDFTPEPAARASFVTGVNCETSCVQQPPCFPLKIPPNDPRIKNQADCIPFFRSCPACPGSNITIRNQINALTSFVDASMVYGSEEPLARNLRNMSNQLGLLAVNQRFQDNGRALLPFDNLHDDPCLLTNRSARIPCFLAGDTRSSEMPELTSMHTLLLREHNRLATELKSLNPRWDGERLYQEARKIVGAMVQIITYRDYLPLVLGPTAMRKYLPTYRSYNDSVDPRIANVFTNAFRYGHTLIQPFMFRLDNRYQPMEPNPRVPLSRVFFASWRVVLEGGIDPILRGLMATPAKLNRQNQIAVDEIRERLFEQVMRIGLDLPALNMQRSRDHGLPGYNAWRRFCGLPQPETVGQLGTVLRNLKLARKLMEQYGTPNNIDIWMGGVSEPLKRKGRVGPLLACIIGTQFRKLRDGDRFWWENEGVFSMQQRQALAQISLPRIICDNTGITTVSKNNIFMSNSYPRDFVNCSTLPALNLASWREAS

As to `CC(C)(C)OC(=O)N(C/C=C(\I)c1cc(NC(c2ccccc2)(c2ccccc2)c2ccccc2)nc2c1nnn2C(c1ccccc1)(c1ccccc1)c1ccccc1)CC(=O)N(CCc1ccccc1)Cc1cccc(Cn2cc(B3OC(C)(C)C(C)(C)O3)cn2)c1`, the ring closure, isolated yield in data set [1] (cc_pd bond, 15-membered ring, PdCl2(dppf)-CH2Cl2/K2CO3, dioxane/H2O, 1.07 mM, 85.0 °C) worked out at 42%.

As to `CC1(C)OB(c2cnn(Cc3cccc(Oc4cccc(CCNC/C=C(\I)c5cc(NC(c6ccccc6)(c6ccccc6)c6ccccc6)nc6c5nnn6C(c5ccccc5)(c5ccccc5)c5ccccc5)c4)c3)c2)OC1(C)C`, the ring closure, isolated yield in data set [1] (cc_pd bond, 17-membered ring, PdCl2(dppf)-CH2Cl2/K2CO3, dioxane/H2O, 2.45 mM, 85.0 °C) turned out to be 35.1%.

As for `C[C@@H](Cc1cccc(Oc2cccc(Cn3cc(B4OC(C)(C)C(C)(C)O4)cn3)c2)c1)N(C/C=C(\I)c1cc(NC(c2ccccc2)(c2ccccc2)c2ccccc2)nc2c1nnn2C(c1ccccc1)(c1ccccc1)c1ccccc1)C(=O)OC(C)(C)C`, the ring closure, isolated yield in data set [1] (cc_pd bond, 17-membered ring, PdCl2(dppf)-CH2Cl2/K2CO3, dioxane/H2O, 1.28 mM, 85.0 °C) was 36%.

As to `Oc1cccc(Cn2cc(C(CCNCc3cccc(I)c3)c3cc(NC(c4ccccc4)(c4ccccc4)c4ccccc4)nc4c3nnn4C(c3ccccc3)(c3ccccc3)c3ccccc3)cn2)c1` (stereo not shown), the ring closure, isolated yield in data set [1] (ether bond, 16-membered ring, CuI/1,10-phenanthroline/Cs2CO3, toluene, 4.8 mM, 150.0 °C) was determined as 29%.

In the case of `Nc1cc(C2CCNCCc3cccc(c3)Oc3cccc(c3)Cn3cc2cn3)c2nn[nH]c2n1` (single isomer, unassigned) [Example 5, 7-{18-oxa-3,4,10-triazatetracyclo[17.3.1.1^3,^6.1^13,^1^7]pentacosa-1(23),4,6(25),13,15,17(24),19,21-octaen-7-yl}-3H-[1,2,3]triazolo[4,5-b]pyridin-5-amine], the pIC50 at EPX is 7.43. Moreover, the IC50 at myeloperoxidase [2] and against myeloperoxidase [3] was 1 to 100 nM throughout.

On to `Nc1cc(C2CCNCC3(CC3)COc3cccc(c3)Cn3cc2cn3)c2nn[nH]c2n1` (single isomer, unassigned) [Example 20, 7-{14′-Oxa-3′,4′,10′-triazaspiro[cyclopropane-1,12′-tricyclo[13.3.1.1^3,^6]icosane]-1′(19′),4′,6′(20′),15′,17′-pentaen-7′-yl}-3H-[1,2,3]triazolo[4,5-b]pyridin-5-amine], for which the negative logarithm of the IC50 (pIC50) on EPX is 7.20. Moreover, the IC50 at myeloperoxidase [2] and against myeloperoxidase [3] was 101 to 999 nM throughout.

For the compound `Nc1cc(C2CCNCc3cccc(c3)COc3cccc(c3)Cn3cc2cn3)c2nn[nH]c2n1` (stereo not shown) [Example 2, 7-{18-oxa-3,4,10-triazatetracyclo[17.3.1.1^3,^6.1^12,^1^6]pentacosa-1(23),4,6(25),12,14,16(24),19,21-octaen-7-yl}-3H-[1,2,3]triazolo[4,5-b]pyridin-5-amine], the pIC50 at EPX was 6.72. The IC50 against myeloperoxidase [2] was 101 to 999 nM; against myeloperoxidase [3], 1 to 100 nM.

Turning to `Nc1cc(C2CCNC3CCC(CC3)COc3cccc(c3)Cn3cc2cn3)c2nn[nH]c2n1` (stereo not shown) [Example 18, 7-{3-Oxa-10,11,17-triazatetracyclo[16.2.2.1^4,^8.1^1^0,^13]tetracosa-4,6,8(24),11,13(23)-pentaen-14-yl}-3H-[1,2,3]triazolo[4,5-b]pyridin-5-amine], the pIC50 at EPX was 6.66. For the same compound, the IC50 on myeloperoxidase [2] is 101 to 999 nM; against myeloperoxidase [3], 1 to 100 nM.
